Patent publication US7829754B2, “Method of cleaning heavy metals-containing soil” (Chubu Electric Power Co., Inc., priority 2004, dated 2010)
Where two headings read alike, the source gives them in different places.

Key:
[1] = format: physicochemical
Method: <Experiment 1. Test of Comparing Lead Dissolving Out Ability of Chelating Agent>
In order to study a kind of a chelating agent to be added to a contaminated soil, the lead dissolving out abilities of 26 types of chelating agents (chelate reagents) were compared (FIG. 2).
2) Chelating agent: Each chelating agent of 100 mmol·dm^−3 and pH 5.8 was prepared.
3) Five grams of 1) the subject soil and 50 ml of 2) the chelating agent were put into to a 100 ml vessel, and shaken (200 times/min) at 20° C. for 6 hours. Repeated cycle was 3.
4) For comparison, a contrast section was prepared, in which desalted water was added instead of the chelating agent in the 3).
5) After shaking, the sample after filtration was centrifuged at 15000 rpm for 5 minutes, and the supernatant liquid was further centrifuged again under the same condition.
6) From the separated supernatant liquid, a lead concentration was measured with an inductively coupled high frequency plasma spectrometry (ICP) device.

[2] = system: Fagopyrum esculentum; test: Fagopyrum esculentum growth situation after addition of chelating agent
Method: 3) The soil B (3 kg) and the contrast section soil (4.3 kg) which had been passed through a sieve (2 mm) were mixed with urea (N: 69 mg/kg soil), calcium superphosphate (P: 75 mg/kg soil), potassium chloride (K: 72 mg/kg soil), and magnesia lime (Mg: 67 mg/kg soil), and sufficiently stirred. 4) The test soil was filled into a Wagnel pot (1/5000a), and a plant was seeded (3 pits/pot, 3 grains/pit). 5) Four to five days after germination, the plant was thinned out to 3 individuals/pot. 6) Cultivation in a gross chamber (Environmental Condition) Temperature: 25° C.×12 h (8:00-20:00), 20° C.×12 h (20:00-8:00) Humidity: 60% Illumination: light condition (8:00-20:00), dark condition (20:00-8:00) Illuminance: 98001×, 180μ mmol˜m^−2·s^−1 7) Aspersion was performed at 100 ml/pot every day. 8) During a test term, a position of a pot was changed four times. 9) Individuals which were about to fall were induced by a support post. 10) One week before harvesting, a chelating agent at each concentration was added to the soil B. An addition amount was 300 ml/pot, and the chelating agent was carefully added to a surface of the soil so that the chelating agent was not contacted with the plant. On the day before addition of the chelating agent and on the day of addition, aspersion was not performed. […] 12) Repeated cycles in all sections were 3 (3 pots/test section).

[3] = system: Fagopyrum esculentum; settings: for Terrestrial lead accumulated amount, fold of EDTA-2Na at the same concentration / Terrestrial lead accumulated amount, fold of contrast section / Leaf dry weight / Stem dry weight / Stem lead concentration / Terrestrial dry weight / Terrestrial part lead accumulation amount / Terrestrial part lead concentration: soil B; for Leaf lead concentration: soil B (lead 13032 mg/kg), added one week before harvesting
Method: A lead concentration in a soil or a plant body was analyzed using ICP-AES (inductively coupled plasma-atomic emission spectrometry) regarding a sample obtained by adding nitric acid and degrading this with a microwave.
A cultivating experiment was conducted as follows: in which Fagopyrum esculentum and Brassica juncca were cultivated in a lead-containing soil filled in a Wagnel pot, a chelating agent was further added to the soil, and a difference in a lead accumulating amount depending on the cultivating condition was examined.
In addition, considering influence on plants and environment such as a salt concentration damage, 1, 5, 10 and 20 mmol kg^−1 soil of chemical reagents were adopted as an addition concentration, and 300 ml/pot (soil 3 kg) was provided as an addition amount.
1) Test plant: Fagopyrum esculentum, trade name (Milkyway), Brassica juncea
2) Test soil: Soil B (sampled from an old firing range site, soil lead concentration 13032 mg/kg), contrast sample (mountain sand in Gifu Prefecture of Japan, soil lead concentration 21 mg/kg)

[4] = chelating agent 100 mmol·dm^−3, pH 5.8, Soil A, shaken at 20° C. for 6 hours, FIG. 2
[5] = four days after addition, 1 mmol/kg soil
[6] = four days after addition, 5 mmol/kg soil
[7] = four days after addition, 10 mmol/kg soil
[8] = four days after addition, 20 mmol/kg soil
[9] = two days after addition, 20 mmol/kg soil
[10] = chelating agent 10 mmol/kg soil
[11] = chelating agent 20 mmol/kg soil

Compound: O=C([O-])CC(NCCNC(CC(=O)O)C(=O)[O-])C(=O)[O-].[Na+].[Na+].[Na+] (stereo not shown) [EDDS·3Na, disodium ethylenediamine succinate]
- lead dissolving out ability ([1]; pH 5.8): high lead dissolving out ability

Compound: N[C@@H](CS)C(=O)O [L-cysteine]
- lead dissolving out ability [1, 4]: high lead dissolving out ability

Compound: CC(C(=O)[O-])N(CC(=O)[O-])CC(=O)[O-].[Na+].[Na+].[Na+] (stereo not shown) [MGDA · 3Na, trisodium methylglycine diacetate]
- Discoloration of leaf (number of individuals for which symptom was observed) [2, 5]: 3
- Leaf drop (number of individuals for which symptom was observed) [2, 5]: 1
- Wilting of leaf (number of individuals for which symptom was observed) [2, 5]: 1
- Discoloration of leaf (number of individuals for which symptom was observed) [2, 6]: 3
- Wilting of leaf (number of individuals for which symptom was observed) [2, 6]: 1
- Discoloration of flower (number of individuals for which symptom was observed) [2, 7]: 5
- Discoloration of leaf (number of individuals for which symptom was observed) [2, 7]: 2
- Leaf drop (number of individuals for which symptom was observed) [2, 7]: 2
- Wilting of leaf (number of individuals for which symptom was observed) [2, 7]: 6
- Discoloration of flower (number of individuals for which symptom was observed) [2, 8]: 9
- Discoloration of leaf (number of individuals for which symptom was observed) [2, 8]: 9
- Leaf drop (number of individuals for which symptom was observed) [2, 8]: 7
- Wilting of leaf (number of individuals for which symptom was observed) [2, 8]: 9
- yellow leaves, spotting and discoloration of leaves, and discoloration of a flower [2, 8]: confirmed in all individuals
- leaf drop ([2]; four days after addition, 20 mmol/kg soil, in words): observed in almost all individuals
- discoloration of leaves [2, 9]: discoloration of leaves was observed
- leaf drop [2, 9]: confirmed partially
- Terrestrial lead accumulated amount, fold of EDTA-2Na at the same concentration ([3]; 10 mmol/kg soil): 1.6 fold
- Terrestrial lead accumulated amount, fold of contrast section ([3]; 10 mmol/kg soil): 3.4 fold
- Terrestrial lead accumulated amount, fold of EDTA-2Na at the same concentration ([3]; 20 mmol/kg soil): 1.3 fold
- Terrestrial lead accumulated amount, fold of contrast section ([3]; 20 mmol/kg soil): 3.7 fold
- addition effect on lead concentration in stems ([3]; 10, 20 mmol/kg soil, contrast section 2043 mg/kg): high addition effect
- addition effect on lead concentration in leaves ([3]; 10, 20 mmol/kg soil, contrast section 7971 mg/kg): high addition effect
- Leaf dry weight ([3]; chelating agent 1 mmol/kg soil): 0.9422 g/plant
- Stem dry weight ([3]; chelating agent 1 mmol/kg soil): 1.9496 g/plant
- Stem lead concentration ([3]; chelating agent 1 mmol/kg soil): 2310 mg/kg
- Terrestrial dry weight ([3]; chelating agent 1 mmol/kg soil): 2.8918 g/plant
- Terrestrial part lead accumulation amount ([3]; chelating agent 1 mmol/kg soil): 0.0130 g/plant
- Terrestrial part lead concentration ([3]; chelating agent 1 mmol/kg soil): 4484 mg/kg
- Leaf lead concentration ([3]; chelating agent 1 mmol/kg soil): 8981 mg/kg
- Leaf dry weight ([3]; chelating agent 5 mmol/kg soil): 0.8863 g/plant
- Stem dry weight ([3]; chelating agent 5 mmol/kg soil): 1.8543 g/plant
- Stem lead concentration ([3]; chelating agent 5 mmol/kg soil): 2384 mg/kg
- Terrestrial dry weight ([3]; chelating agent 5 mmol/kg soil): 2.7406 g/plant
- Terrestrial part lead accumulation amount ([3]; chelating agent 5 mmol/kg soil): 0.0156 g/plant
- Terrestrial part lead concentration ([3]; chelating agent 5 mmol/kg soil): 5690 mg/kg
- Leaf lead concentration ([3]; chelating agent 5 mmol/kg soil): 12607 mg/kg
- Leaf dry weight [3, 10]: 0.7343 g/plant
- Stem dry weight [3, 10]: 1.5023 g/plant
- Stem lead concentration [3, 10]: 10098 mg/kg
- Terrestrial dry weight [3, 10]: 2.2366 g/plant
- Terrestrial part lead accumulation amount [3, 10]: 0.0399 g/plant
- Terrestrial part lead concentration [3, 10]: 17858 mg/kg
- Leaf lead concentration [3, 10]: 33735 mg/kg
- Leaf dry weight [3, 11]: 0.5582 g/plant
- Stem dry weight [3, 11]: 1.3716 g/plant
- Stem lead concentration [3, 11]: 16437 mg/kg
- Terrestrial dry weight [3, 11]: 1.9298 g/plant
- Terrestrial part lead accumulation amount [3, 11]: 0.0441 g/plant
- Terrestrial part lead concentration [3, 11]: 22848 mg/kg
- Leaf lead concentration [3, 11]: 38601 mg/kg
- Terrestrial part lead accumulation amount ([3]; per unit area, calculated, chelating agent 1 mmol/kg soil): 1.95 g/m^2
- Terrestrial part lead accumulation amount ([3]; per unit area, calculated, chelating agent 5 mmol/kg soil): 2.34 g/m^2
- Terrestrial part lead accumulation amount ([3]; per unit area, calculated, chelating agent 10 mmol/kg soil): 5.99 g/m^2
- Terrestrial part lead accumulation amount ([3]; per unit area, calculated, chelating agent 20 mmol/kg soil): 6.62 g/m^2
- lead dissolving out ability [1, 4]: high lead dissolving out ability
